Source: patent US4634663A, “Method and reagent for quantitative determination of N-acetylhexosamine” (Noda Institute for Scientific Research, priority 1983, dated 1987)

Columns and labels:
Format in all cases: biochemical, Pseudomonas sp. No. 15-1
[1] = test system: N-acetylhexosamine oxidase; test: Activity inhibition of the enzyme by metallic ions or inhibitors; details: for Residual activity (%): tris-hydrochloric acid buffer solution of pH 7.5, 1.8mM metallic ion or inhibitor; for Inhibition of enzyme activity (in words): tris-hydrochloric acid buffer pH 7.5, 1.8mM
Description: The activity of the present enzyme was measured in various solutions each comprising a tris-hydrochloric acid buffer solution of pH 7.5 and 1.8mM metallic ion or inhibitor.

[2] = test system: N-acetylhexosamine oxidase; test: Action and specificity for substrate; details: in the presence of oxygen
Text: As shown in the following reaction formula, the present enzyme oxidizes N-acetylhexosamine in the presence of oxygen to form N-acetylhexosaminic acid and hydrogen peroxide.

[3] = test system: N-acetylhexosamine oxidase; test: Activity inhibition of the enzyme by metallic ions or inhibitors
[4] = test system: N-acetylhexosamine oxidase; test: Activity stabilization by bovine serum albumin during heat treatment; details: 1 mg/ml bovine serum albumin, potassium phosphate buffer pH 6.8, 10 minutes heat treatment
Description: Further, in 10 minutes heat treatment at 45° C., the present enzyme is stable between pH 3 and pH 9 and loses its activity rapidly at a more acidic region and slowly at a more alkaline region. In this experiment, the hydrogen peroxide method was adopted, and the residual activity of the present enzyme subjected to 10 minutes heat treatment in a potassium phosphate buffer solution of pH 6.8 at each temperature was compared with the residual activity of the same enzyme subjected to the same treatment in a potassium phosphate buffer solution of pH 6.8 containing 1 mg/ml of bovine serum albumin.

Row | Molecule | Residual activity (%) [1] [%] | further results
1 | c1cnc2c(c1)ccc1cccnc12 [o'-Phenanthroline] | 81 | 
2 | HgCl2 | 17 | Inhibition of enzyme activity (in words) [1]: inhibited greatly
3 | O=S(=O)([O-])[O-].[Zn+2] [ZnSO4] | 2 | Inhibition of enzyme activity (in words) [1]: inhibited greatly
4 | CC(=O)N[C@H]1[C@H]([C@H](O)[C@H](O)CO)OC(O)(C(=O)O)C[C@@H]1O (stereo partly drawn) [N-acetylneuraminic acid] |  | Action of the enzyme on substrate [2]: hardly acts or does not at all act
5 | O=S(=O)([O-])[O-].[Mn+2] [MnSO4] | 84 | 
6 | O=S(=O)([O-])[O-].[Co+2] [CoSO4] | 75 | 
7 | O=C([O-])CN(CCN(CC(=O)[O-])CC(=O)[O-])CC(=O)[O-].[Na+].[Na+].[Na+].[Na+] [EDTA, Ethylenediaminetetraacetic acid sodium salt] |  | Residual activity (%) ([3]; pH 7.5): 87%
8 | O=S(=O)([O-])[O-].[Fe+2] [FeSO4] | 15 | Inhibition of enzyme activity (in words) [1]: inhibited greatly
9 | NC(=O)CI [ICH2 CONH2] | 90 | 
10 | O=C(O)CF [FCH2 COONa] | 107 | 
11 | O=[N+]([O-])[O-].[Ag+] [AgNO3] |  | Residual activity (%) ([3]; Phosphate buffer solution, 1.8mM): 5%
12 | O=S(=O)([O-])[O-].[Mg+2] [MgSO4] | 86 | 
13 | O=S(=O)([O-])[O-].[Ni+2] [NiSO4] | 64 | Inhibition of enzyme activity (in words) [1]: considerably
14 | O=C(O)c1cc[c]([Hg][Cl])cc1 [PCMB, pChloromercurybenzoate] | 67 | 
15 | Oc1cccc2cccnc12 [8-Hydroxyquinoline] |  | Residual activity (%) ([3]; pH 7.5): 102%
16 | [Ca+2].[Cl-].[Cl-] [CaCl2] | 91 | 
17 | O=S(=O)([O-])[O-].[Cu+2] [CuSO4] | 74 | 
18 | CC(=O)[O-].CC(=O)[O-].[Pb+2] [Pb(CH3 COO)2] | 42 | Inhibition of enzyme activity (in words) [1]: considerably
19 | bovine serum albumin: bovine serum albumin added at 1 mg/ml as stabilizer of the enzyme |  | Effect on enzyme activity on heat treatment [4]: stabilized and moreover slightly enhanced
20 | [N-]=[N+]=[N-].[Na+] [NaN3] | 103 | 
21 | CCCCCCCCCCCCOS(=O)(=O)[O-].[Na+] [SDS, Sodium dodecylsulfate] | 87 | 
22 | c1ccc(-c2ccccn2)nc1 [α,α'-Dipyridyl] | 106 | 
